# From PMC6930573, “Discovery of Selective Butyrylcholinesterase (BChE) Inhibitors through a Combination of Computational Studies and Biological Evaluations” (Molecules, 2019)
# “And” between values parts separate entries of the source, which are not always exact repeats. Identical values can stand only once.
# Experiments:
# [1] = target: T1, AChE (from human erythrocytes) (Homo sapiens, UniProt P22303); experiment: biochemical; format: biochemical; conditions: mean ± SEM of three experiments; for AChE IR (inhibition ratio): at 10 μM
# T1 construct: AChE (from human erythrocytes, C0663); purchased Sigma-Aldrich C0663; host or cells: human erythrocytes
# T1 sequence (P22303 other isoform, or with tags, fused parts or gaps): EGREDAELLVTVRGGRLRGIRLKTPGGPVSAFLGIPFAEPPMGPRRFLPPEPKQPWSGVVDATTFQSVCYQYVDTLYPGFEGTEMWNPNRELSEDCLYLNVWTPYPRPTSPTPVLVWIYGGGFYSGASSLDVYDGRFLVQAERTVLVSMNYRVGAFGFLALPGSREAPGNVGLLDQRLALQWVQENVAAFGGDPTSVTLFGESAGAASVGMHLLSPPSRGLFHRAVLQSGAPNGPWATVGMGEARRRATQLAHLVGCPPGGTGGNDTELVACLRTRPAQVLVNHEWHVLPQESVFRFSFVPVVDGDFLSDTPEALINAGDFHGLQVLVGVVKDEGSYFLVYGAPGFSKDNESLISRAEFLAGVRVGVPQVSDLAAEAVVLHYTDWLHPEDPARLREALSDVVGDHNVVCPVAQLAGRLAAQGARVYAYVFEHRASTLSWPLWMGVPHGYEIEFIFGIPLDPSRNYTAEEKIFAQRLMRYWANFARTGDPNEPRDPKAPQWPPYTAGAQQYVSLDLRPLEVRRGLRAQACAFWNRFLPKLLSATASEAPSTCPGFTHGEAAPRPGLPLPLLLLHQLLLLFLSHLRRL
# Protocol: (§1) Modified Ellman’s assay was performed to measure the inhibitory effects of purchased compounds on ChEs using a Thermo Fisher Scientific spectrophotometer. AChE (from human erythrocytes, C0663), BChE (from human serum, B4186), 5,5-dithiobis-(2-nitrobenzoic acid) (DTNB, D218200), acetylthiocholine iodide (ATC, A5751), and butyrylthiocholine iodide (BTC, B3253) were purchased from Sigma-Aldrich (St. Louis, MO, USA).
# (§2) For measurement, a cuvette containing 30 μL of phosphate buffer, 10 μL of AChE (2.5 units/mL) or BChE (2.5 units/mL), and 10 μL of the test compound solution was allowed to stand for 5 min before 10 μL of DTNB was added. After the addition of 20 μL of ATC or BTC, the reaction was initiated and the solution was mixed immediately. […] 10 μL of phosphate-buffered solution replaced the enzyme solution were used to determine the blank value. All the measurements were done in triplicate. The inhibition curve was drawn by plotting the percentage enzyme activity (100% for the reference) versus the logarithm of the test compound concentration. The IC50 values were calculated by GraphPad Prism 6 (GraphPad Software, San Diego, CA, USA), and the data were shown as mean ± standard error of mean (SEM).
# BChE (from human serum) = target: T2, BChE (from human serum) (Homo sapiens, UniProt P06276); experiment: biochemical; format: biochemical; conditions: for BChE IR (inhibition ratio): at 10 μM; for BChE IR (inhibition ratio) / IC50: mean ± SEM of three experiments
# T2 construct: BChE (from human serum, B4186); purchased Sigma-Aldrich B4186; host or cells: human serum
# T2 sequence (P06276 29-602): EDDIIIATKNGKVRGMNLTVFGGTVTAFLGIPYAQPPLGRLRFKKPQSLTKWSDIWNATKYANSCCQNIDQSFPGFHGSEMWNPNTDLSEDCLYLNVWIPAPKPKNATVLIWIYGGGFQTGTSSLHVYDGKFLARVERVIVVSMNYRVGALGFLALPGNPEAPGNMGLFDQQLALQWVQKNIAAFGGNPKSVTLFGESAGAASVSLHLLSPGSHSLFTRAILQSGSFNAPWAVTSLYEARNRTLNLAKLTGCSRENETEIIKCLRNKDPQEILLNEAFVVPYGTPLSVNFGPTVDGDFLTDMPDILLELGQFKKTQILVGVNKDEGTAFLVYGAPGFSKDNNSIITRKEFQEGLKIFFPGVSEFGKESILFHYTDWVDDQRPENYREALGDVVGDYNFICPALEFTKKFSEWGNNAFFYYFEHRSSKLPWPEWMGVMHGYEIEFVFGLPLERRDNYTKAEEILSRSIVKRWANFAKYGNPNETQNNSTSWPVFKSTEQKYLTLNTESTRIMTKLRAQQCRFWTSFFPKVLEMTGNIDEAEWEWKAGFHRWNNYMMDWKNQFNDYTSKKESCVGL
# Protocol: as §1, §2
# hAChE = tested on: hAChE; parameters: method as in earlier work; conditions: Figure 1; ref 22 (1), 23 (2); cited from earlier work
# hBChE = conditions: read-out: IC50 (hBChE); Figure 1; ref 22 (1), 23 (2), 24 (3), 25 (4); cited from earlier work
# SH-SY5Y cells = experiment: MTT cell viability assay; format: cell-based; conditions: 10 μM and 50 μM, 24 h
# Protocol: The human neuroblastoma SH-SY5Y cells (3 × 10^3, DMEM medium supplemented with 10% fetal bovine serum, volume 0.1 mL) were placed in a 96-well flat-bottomed plate, in a humidified atmosphere of 95% air and 5% CO2 at 37 °C and grown to 80% confluence. Before cell treatment, the complete medium was replaced with reduced-serum medium (BI, 01-052-1ACS). Then, cells were treated with various concentrations of compounds for 24 h. MTT reagent (D&B, Q108115) (0.5 mg/mL) was added to the wells and the plates were incubated for 4 h at 37 °C. Supernatants were carefully removed, and 150 μL of dimethylsulfoxide (DMSO) were added into each well. The absorbance was measured at 570 nm using the spectrophotometer (Thermo, multiskan FC, USA). Cells were treated in quadruplicate. The values are the mean ± SD of three independent experiments.
# BChE = target: T3, BChE (Homo sapiens, UniProt P06276); experiment: Enzyme kinetic study with BChE (substrate BTC); format: biochemical; conditions: for Apparent Vmax: mean ± SD; for Kiu (inhibition constant for the uncompetitive part of inhibition) / Ki: mean ± SEM of three experiments; for Ki: read-out: Kic (inhibition constant for the competitive part of inhibition); for Mode of inhibition: substrate 90–904 μM, inhibitor 0.5–2 μM
# T3 construct: BChE (from human serum, B4186); purchased Sigma-Aldrich B4186; host or cells: human serum
# T3 sequence (P06276 29-602): as above
# Protocol: Kinetic studies were performed in the same manner as the determination of ChE inhibition as previously described. The substrate (BTC) was used at various concentrations (90, 150, 226, 452, and 904 μM) for each test compound concentration and the enzymatic reaction was extended to four minutes before determining the absorption. The Vmax and Km values of the Michaelis–Menten kinetics were calculated by nonlinear regression from substrate–velocity curves using Graphpad Prism 6 (GraphPad Software, San Diego, CA, USA) (Table S1). […]
smiles,measurement,setting,value
Cc1nc(-c2cccc(F)c2)n(CCC(=O)NCCCc2ccccc2)c(=O)c1CCO [Compound 6],AChE IR (inhibition ratio),[1],−1.5 ± 0.5%
same,BChE IR (inhibition ratio),BChE (from human serum),8.5 ± 0.3%
O=C(O)C(c1c[nH]c2ccccc12)N1CCN(c2ccccn2)CC1 (centres unmarked) [Compound 15],AChE IR (inhibition ratio),[1],0.6 ± 1.0%
same,BChE IR (inhibition ratio),BChE (from human serum),−0.6 ± 0.5%
COC(=O)c1c(S(=O)(=O)Nc2ccc(C)cc2)sc2c1CCN(Cc1ccccc1O)C2 [Compound 19],IC50,[1],13800 ± 6000 nM
same,"BChE selective index (SI BChE, AChE IC50/BChE IC50)",BChE (from human serum),6
same,IC50,BChE (from human serum),2400 ± 1000 nM
Cc1ccc(S(=O)(=O)Nc2nc3ccccc3nc2NCc2ccc(F)cc2)cc1C [Compound 5],AChE IR (inhibition ratio),[1],−0.31 ± 0.5%
same,BChE IR (inhibition ratio),BChE (from human serum),7.2 ± 0.6%
O=C(CC1NC(N2CCN(Cc3ccccc3)CC2)=NC1=O)Nc1ccccc1 (centres unmarked) [Compound 10],AChE IR (inhibition ratio),[1],7.8 ± 0.7%
same,BChE IR (inhibition ratio),BChE (from human serum),9.9 ± 1.0%
"COCCN(CC1CCCN(Cc2ccccc2)C1)S(=O)(=O)c1ccc2ccccc2c1 (centres unmarked) [Compound 1, N-((1-benzylpiperidin-3-yl)methyl)-N-(2-methoxyethyl)naphthalene-2-sulfonamide]",IC50,hAChE,> 10000 nM
COc1cccc(S(=O)(=O)NCC2CCCN(Cc3cc4ccccc4o3)C2)c1 (centres unmarked) [Compound 16],AChE IR (inhibition ratio),[1],38.7 ± 1.7%
same,BChE IR (inhibition ratio),BChE (from human serum),26.4 ± 1.1%
O=C1NCCCc2c1c1ccccc1n2CCc1cccc(F)c1 [Compound 3],IC50,hBChE,1.8 nM
Cc1noc(C)c1CN(C)Cc1ccn(S(=O)(=O)c2ccccc2)c1 [Compound 7],AChE IR (inhibition ratio),[1],0.6 ± 0.6%
same,BChE IR (inhibition ratio),BChE (from human serum),16.3 ± 1.1%
COc1ccccc1CN1CCCC(CN(CCN(C)C)C(=O)C(=O)c2ccccc2)C1 (centres unmarked) [Compound 8],Effect on cell viability (cytotoxicity),SH-SY5Y cells,none of compounds was observed to affect cell viability
same,"BChE selective index (SI BChE, AChE IC50/BChE IC50)",BChE (from human serum),> 30
same,IC50,BChE (from human serum),1100 ± 600 nM
same,Apparent Vmax,BChE; inhibitor 0.5 µM,0.34 ± 0.01 µM/min
same,Apparent Vmax,BChE; inhibitor 1 µM,0.27 ± 0.01 µM/min
same,Apparent Vmax,BChE; inhibitor 1.5 µM,0.25 ± 0.01 µM/min
same,Apparent Vmax,BChE; inhibitor 2 µM,0.24 ± 0.01 µM/min
same,Kiu (inhibition constant for the uncompetitive part of inhibition),BChE,3.61 ± 0.24 µM
same,Ki,BChE,880 ± 70 nM
same,Mode of inhibition,BChE,mixed-type inhibitors
CCCCCCCNC(=O)Oc1ccc2c(c1)CN(C)C(c1cccs1)N2C (centres unmarked) [Compound 4],IC50,hBChE,13 nM
COCCN1C(=O)N(CCc2ccccc2)C(=O)C12CCN(Cc1ccccc1)CC2 [Compound 9],AChE IR (inhibition ratio),[1],16.0 ± 1.5%
same,BChE IR (inhibition ratio),BChE (from human serum),15.5 ± 1.6%
COc1cccc(N(CC(=O)N2CCN(Cc3ccccc3)CC2)S(=O)(=O)c2ccccc2)c1 [Compound 13],AChE IR (inhibition ratio),[1],11.3 ± 1.3%
same,BChE IR (inhibition ratio),BChE (from human serum),20.1 ± 1.2%
O=C(NC1(C(F)(F)F)N=C(c2ccccc2)N(Cc2ccccc2)C1=O)c1ccco1 (centres unmarked) [Compound 11],AChE IR (inhibition ratio),[1],−0.7 ± 0.7%
same,BChE IR (inhibition ratio),BChE (from human serum),14.8 ± 1.3%
CCN(Cc1ccccc1)C(=O)CCc1nc2ccsc2c(=O)n1Cc1ccccc1 [Compound 14],AChE IR (inhibition ratio),[1],10.9 ± 0.8%
same,BChE IR (inhibition ratio),BChE (from human serum),3.4 ± 0.4%
COc1ccc(CCN2CCCC(O)(CNCc3cc(C)ccc3C)C2=O)cc1 (centres unmarked) [Compound 18],Effect on cell viability (cytotoxicity),SH-SY5Y cells,none of compounds was observed to affect cell viability
same,AChE IR (inhibition ratio),[1],11.1% and 11.1 ± 1.5%
same,"BChE selective index (SI BChE, AChE IC50/BChE IC50)",BChE (from human serum),> 30
same,BChE IR (inhibition ratio),BChE (from human serum),58.4% and 58.4 ± 0.9%
same,IC50,BChE (from human serum),6300 ± 2000 nM
same,Apparent Vmax,BChE; inhibitor 0.5 µM,0.49 ± 0.01 µM/min
same,Apparent Vmax,BChE; inhibitor 1 µM,0.42 ± 0.02 µM/min
same,Apparent Vmax,BChE; inhibitor 1.5 µM,0.39 ± 0.01 µM/min
same,Apparent Vmax,BChE; inhibitor 2 µM,0.28 ± 0.02 µM/min
same,Kiu (inhibition constant for the uncompetitive part of inhibition),BChE,2.31 ± 0.32 µM
same,Ki,BChE,930 ± 130 nM
same,Mode of inhibition,BChE,mixed-type inhibitors
CN(C)CCN(CC1CCCN(C2Cc3ccccc3C2)C1)C(=O)c1ccc2ccccc2c1 (centres unmarked) [Compound 2],IC50,hAChE,> 10000 nM
CC1=NC2C(SC(=S)N2Cc2ccco2)C(=O)N1CC(=O)NCCc1ccccc1 (centres unmarked) [Compound 12],AChE IR (inhibition ratio),[1],1.1 ± 1.0%
same,BChE IR (inhibition ratio),BChE (from human serum),−1.8 ± 1.1%
Cc1cc(C)cc(N(CC(=O)N2CCN(Cc3ccccc3)CC2)S(=O)(=O)c2ccccc2)c1 [Compound 17],AChE IR (inhibition ratio),[1],2.9 ± 0.5%
same,BChE IR (inhibition ratio),BChE (from human serum),11.8 ± 1.2%
